Where two headings read alike, the source gives them in different places.

Assay [1] deals with CDK7/Cyclin H/MAT1 complex (Homo sapiens, UniProt P50613). As to the kind of experiment: CDK7 inhibition assay (Caliper/LabChip EZ Reader kinase assay). In kind it is biochemical. The method, then: (§1) Compounds of the invention were assayed for inhibition of CDK7, CDK9, CDK12, and CDK2 activity at Biortus Biosciences (Jiangyin, Jiangsu Province, P.R. of China) using kinase assays for each CDK developed with a Caliper/LabChip EZ Reader (Perkin Elmer, Waltham, MA).
(§2) Furthermore, the CDK9 inhibition assay used CDK9/Cyclin T1 complex (8 nM) and “5-FAM-CDK9tide” peptide substrate (2 μM, synthesized fluorophore-labeled peptide with the following sequence: 5-FAM-GSRTPMY-NH2 where 5-FAM is defined above and NH2 signifies a C-terminal amide) with 10 mM MgCl2 in the buffer composition listed above. […] Additionally, the CDK2 inhibition assay used CDK2/Cyclin E1 complex (0.5 nM) and “5-FAM-CDK7tide” ([…]) as defined above, with 2 mM MgCl2 in the buffer composition listed above.

For assay [2], the target named is CDK9/Cyclin T1 complex (Homo sapiens, UniProt P50750). Put plainly: CDK9 inhibition assay (Caliper/LabChip EZ Reader kinase assay). Type of assay: biochemical. The method, then:
as §1, §2

The subject of assay [3] is A673 cells. As to the kind of experiment: Inhibition of proliferation of A673 cells (CyQUANT, 72 hour). Type of assay: cell-based, human. The method, then:
A673 cells are a cell line derived from human […] Ewing's sarcoma. Representative compounds of the invention were tested at different concentrations (from […]; 0.5 log serial dilutions) for their ability to inhibit the proliferation of A673 cells. Known CDK inhibitors dinaciclib or N-((1S,3R)-3-((5-chloro-4-(1H-indol-3-yl)pyrimidin-2-yl)amino)cyclohexyl)-5-((E)-4-(dimethylamino)but-2-enamido)picolinamide and triptolide were used as positive controls. Cells were grown in Dulbecco's Modified Eagle's Medium, +10% FBS+1 mM Sodium Pyruvate. The cells were cultured at 37° C. in a humidified chamber in the presence of 5% CO2. Proliferation assays were conducted over a 72 hour time period. CyQUANT® (Life Technologies, Chicago, IL USA) was used to assess the anti-proliferative effects of the compounds following manufacturer's directions and utilizing the reagents supplied with the CyQUANT® kit.

Assay [4] addresses CDK2/Cyclin E1 complex (Homo sapiens, UniProt P24941). Put plainly: CDK2 inhibition assay (Caliper/LabChip EZ Reader kinase assay). In kind it is biochemical. The method, then: as §1, §2
Assay [5] concerns the target T1, CDK12 (aa686-1082)/Cyclin K complex (Homo sapiens, UniProt Q9NYV4).
T1 construct: CDK12 (aa686-1082)/Cyclin K complex
Put plainly: CDK12 inhibition assay (Caliper/LabChip EZ Reader kinase assay). In kind it is biochemical. The conditions noted are these: Table 1; CDK12 (aa686-1082)/Cyclin K 50 nM, ATP 2 mM, 3 hr at 27° C. The method, then: as §1, §2

The mark [6] stands for this setting: Table 3, comparison with structural analogs.
Setting [7] is: Homo sapiens, A673, 72 h, Table 3, comparison with structural analogs, 72 hour proliferation, read-out: A673 Cells.
The mark [8] stands for this setting: Table 1, CDK7/Cyclin H/MAT1 6 nM, ATP 2 mM, 35 min at 27° C.
Where [9] appears, read: Table 1, CDK9/Cyclin T1 8 nM, ATP 2 mM, 15 min at 27° C.
[10] abbreviates: Homo sapiens, A673, 72 h, A673 cells, 72 hour, CyQUANT, read-out: Inhibition of Proliferation of A673 Cells (calculated IC50).
Setting [11] is: Table 1, CDK2/Cyclin E1 0.5 nM, ATP 2 mM, 35 min at 27° C.
Where [12] appears, read: A673 cells, 72 hour, CyQUANT, read-out: Inhibition of Proliferation of A673 Cells (calculated IC50).

Chain of CDK9/Cyclin T1 complex (P50750 whole entry, species assumed): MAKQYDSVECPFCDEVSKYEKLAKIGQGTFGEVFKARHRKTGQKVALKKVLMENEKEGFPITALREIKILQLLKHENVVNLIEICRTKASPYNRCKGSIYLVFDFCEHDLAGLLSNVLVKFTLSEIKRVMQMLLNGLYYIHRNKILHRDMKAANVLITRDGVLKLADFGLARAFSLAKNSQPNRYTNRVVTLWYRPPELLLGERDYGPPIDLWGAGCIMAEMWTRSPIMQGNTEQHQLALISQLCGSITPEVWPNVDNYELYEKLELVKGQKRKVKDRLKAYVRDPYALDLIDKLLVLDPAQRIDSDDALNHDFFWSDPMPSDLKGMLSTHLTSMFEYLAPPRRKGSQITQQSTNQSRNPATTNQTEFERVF
Chain of CDK9/Cyclin T1 complex (O60563 whole entry partner, species assumed): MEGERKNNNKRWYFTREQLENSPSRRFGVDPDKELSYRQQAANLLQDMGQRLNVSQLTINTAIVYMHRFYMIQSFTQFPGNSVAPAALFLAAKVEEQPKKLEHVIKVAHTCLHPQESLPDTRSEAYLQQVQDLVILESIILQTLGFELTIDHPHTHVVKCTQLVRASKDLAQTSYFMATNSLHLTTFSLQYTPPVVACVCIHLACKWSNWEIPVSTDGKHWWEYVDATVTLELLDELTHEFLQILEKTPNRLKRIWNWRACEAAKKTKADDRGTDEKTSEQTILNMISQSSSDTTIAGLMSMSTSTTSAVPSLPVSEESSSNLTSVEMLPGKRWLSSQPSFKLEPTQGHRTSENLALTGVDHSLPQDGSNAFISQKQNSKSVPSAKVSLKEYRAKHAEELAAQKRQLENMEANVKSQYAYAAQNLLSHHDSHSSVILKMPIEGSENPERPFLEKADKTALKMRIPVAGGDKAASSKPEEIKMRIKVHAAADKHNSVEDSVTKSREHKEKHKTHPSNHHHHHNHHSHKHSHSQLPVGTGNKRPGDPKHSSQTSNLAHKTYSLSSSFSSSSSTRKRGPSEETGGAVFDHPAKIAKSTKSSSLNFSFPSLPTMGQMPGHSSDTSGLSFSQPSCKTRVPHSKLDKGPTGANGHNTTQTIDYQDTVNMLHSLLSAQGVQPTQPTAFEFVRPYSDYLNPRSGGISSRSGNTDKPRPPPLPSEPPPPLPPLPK
Chain of CDK7/Cyclin H/MAT1 complex (P50613 whole entry, species assumed): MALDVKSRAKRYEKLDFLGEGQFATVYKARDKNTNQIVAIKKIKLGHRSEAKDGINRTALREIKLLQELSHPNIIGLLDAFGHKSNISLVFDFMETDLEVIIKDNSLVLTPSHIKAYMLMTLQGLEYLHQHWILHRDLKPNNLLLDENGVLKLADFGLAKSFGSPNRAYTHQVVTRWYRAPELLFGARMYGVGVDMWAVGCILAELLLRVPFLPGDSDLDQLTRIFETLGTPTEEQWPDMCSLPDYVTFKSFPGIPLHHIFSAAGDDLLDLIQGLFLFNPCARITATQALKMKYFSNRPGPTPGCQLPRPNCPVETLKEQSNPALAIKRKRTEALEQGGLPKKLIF
Chain of CDK7/Cyclin H/MAT1 complex (P51946 whole entry partner, species assumed): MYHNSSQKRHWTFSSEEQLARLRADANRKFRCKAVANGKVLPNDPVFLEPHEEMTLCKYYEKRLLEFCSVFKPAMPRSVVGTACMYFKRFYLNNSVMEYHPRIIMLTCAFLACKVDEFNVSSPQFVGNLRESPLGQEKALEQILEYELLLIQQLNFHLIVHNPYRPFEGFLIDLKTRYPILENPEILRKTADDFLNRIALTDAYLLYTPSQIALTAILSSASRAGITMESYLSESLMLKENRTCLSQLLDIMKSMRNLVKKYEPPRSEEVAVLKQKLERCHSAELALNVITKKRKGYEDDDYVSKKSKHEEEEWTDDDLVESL
Chain of CDK7/Cyclin H/MAT1 complex (P51948 whole entry partner, species assumed): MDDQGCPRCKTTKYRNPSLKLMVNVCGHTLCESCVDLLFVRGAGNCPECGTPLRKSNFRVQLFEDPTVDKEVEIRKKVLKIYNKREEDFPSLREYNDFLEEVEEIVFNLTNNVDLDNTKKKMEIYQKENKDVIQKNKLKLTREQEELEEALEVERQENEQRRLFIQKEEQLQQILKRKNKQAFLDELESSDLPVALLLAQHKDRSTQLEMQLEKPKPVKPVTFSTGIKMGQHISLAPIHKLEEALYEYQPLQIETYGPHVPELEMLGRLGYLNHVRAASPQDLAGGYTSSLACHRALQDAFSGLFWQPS
T1 sequence (Q9NYV4 686-1082, species assumed): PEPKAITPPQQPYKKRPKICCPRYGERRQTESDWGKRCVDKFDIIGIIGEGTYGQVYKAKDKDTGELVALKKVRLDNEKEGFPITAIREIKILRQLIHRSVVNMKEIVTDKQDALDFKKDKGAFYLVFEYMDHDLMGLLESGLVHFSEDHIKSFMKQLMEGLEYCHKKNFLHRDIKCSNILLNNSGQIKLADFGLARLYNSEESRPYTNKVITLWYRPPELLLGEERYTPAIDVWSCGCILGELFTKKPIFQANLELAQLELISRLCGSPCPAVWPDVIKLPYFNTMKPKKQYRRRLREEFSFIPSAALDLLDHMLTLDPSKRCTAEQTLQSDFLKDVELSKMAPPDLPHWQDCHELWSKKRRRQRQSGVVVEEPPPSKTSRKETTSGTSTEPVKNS
T1 sequence (O75909 whole entry partner, species assumed, the tested form may be a part): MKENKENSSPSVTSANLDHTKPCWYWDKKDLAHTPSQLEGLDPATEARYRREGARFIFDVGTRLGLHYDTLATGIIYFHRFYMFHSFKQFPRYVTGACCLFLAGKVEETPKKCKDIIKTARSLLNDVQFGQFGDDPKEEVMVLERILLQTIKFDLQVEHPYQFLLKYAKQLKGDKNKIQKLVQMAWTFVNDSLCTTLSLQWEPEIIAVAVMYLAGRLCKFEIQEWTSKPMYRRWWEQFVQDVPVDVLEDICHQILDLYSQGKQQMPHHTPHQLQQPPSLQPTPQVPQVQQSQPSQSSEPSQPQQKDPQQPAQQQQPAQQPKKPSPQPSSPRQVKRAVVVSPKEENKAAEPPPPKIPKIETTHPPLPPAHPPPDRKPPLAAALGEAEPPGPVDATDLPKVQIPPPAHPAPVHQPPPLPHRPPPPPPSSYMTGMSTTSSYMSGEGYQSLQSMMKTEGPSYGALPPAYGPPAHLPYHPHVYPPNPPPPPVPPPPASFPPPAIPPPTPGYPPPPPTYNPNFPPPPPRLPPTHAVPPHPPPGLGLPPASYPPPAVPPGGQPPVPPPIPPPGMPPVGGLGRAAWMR

With `FC(F)(F)c1cnc(N[C@H]2CCCNC2)nc1-c1c[nH]c2ccccc12`, the IC50 was below 20 nM in assay [1] (setting [6]), 20 to 200 nM in assay [2] (setting [6]), below 20 nM in assay [3] (setting [7]) and 200 to 5000 nM in assay [4] (setting [6]).
`CC(O)c1cnc(N[C@H]2CCCNC2)nc1-c1c[nH]c2ccccc12` (mixture of isomers) [Compound 234]: the IC50 is above 5000 nM in assay [5]; 200 to 5000 nM in assay [1] (setting [8]); above 5000 nM in assay [2] (setting [9]); below 20 nM in assay [3] (setting [10]); above 5000 nM in assay [4] (setting [11]).
For the compound `CCCCCC1CC[C@H](Nc2ncc(C(F)(F)F)c(-c3c[nH]c4ccccc34)n2)CN1` (mixture of isomers) [Compound 241], the IC50 in assay [5] is 200 to 5000 nM; in assay [1] (setting [8]), 20 to 200 nM; in assay [2] (setting [9]), 200 to 5000 nM; in assay [3] (setting [10]), 20 to 200 nM; in assay [4] (setting [11]) it was 200 to 5000 nM.
As for `O=C(C1CCC(Nc2ncc(C(F)(F)F)c(-c3c[nH]c4ccccc34)n2)CN1)N1CCC(O)C1` (mixture of isomers) [Compound 244], the IC50 was 200 to 5000 nM in assay [5]; 20 to 200 nM in assay [1] (setting [8]); above 5000 nM in assay [2] (setting [9]); 200 to 5000 nM in assay [3] (setting [10]); 200 to 5000 nM in assay [4] (setting [11]).
As for `CC(C)C1CC[C@H](Nc2ncc(C(F)(F)F)c(-c3c[nH]c4ccccc34)n2)CN1` (mixture of isomers) [Compound 257], the IC50 is above 5000 nM in assay [5]; 20 to 200 nM in assay [1] (setting [8]); above 5000 nM in assay [2] (setting [9]); 200 to 5000 nM in assay [3] (setting [10]); above 5000 nM in assay [4] (setting [11]).
In the case of `FC(F)(F)c1cnc(N[C@@H]2CNC[C@H](c3nnc4ccccn34)C2)nc1-c1c[nH]c2ccccc12` (relative stereo) [Compound 266], the IC50 in assay [5] was 200 to 5000 nM; in assay [1] (setting [8]) it was 20 to 200 nM; in assay [2] (setting [9]), 200 to 5000 nM; in assay [3] (setting [12]) it was 20 to 200 nM; in assay [4] (setting [11]) it was 200 to 5000 nM.
Take `CC1(C)CCNC[C@@H]1Nc1ncc(C(F)(F)F)c(-c2c[nH]c3ccccc23)n1` (single isomer, unassigned) [Compound 209]: the IC50 is above 5000 nM in assay [5]; 200 to 5000 nM in assay [1] (setting [8]); above 5000 nM in assay [2] (setting [9]); 20 to 200 nM in assay [3] (setting [10]); above 5000 nM in assay [4] (setting [11]).
As for `CC1(C)CCNC[C@H]1Nc1ncc(C(F)(F)F)c(-c2c[nH]c3ccccc23)n1` (single isomer, unassigned) [Compound 210], the IC50 is above 5000 nM in assay [5]; 200 to 5000 nM in assay [1] (setting [8]); above 5000 nM in assay [2] (setting [9]); 200 to 5000 nM in assay [3] (setting [10]); above 5000 nM in assay [4] (setting [11]).
In the case of `CC(O)c1cnc(NC2CCCNC2)nc1-c1c[nH]c2ccccc12` (single isomer, unassigned) [Compound 238], the IC50 was above 5000 nM in assay [5]; 200 to 5000 nM in assay [1] (setting [8]); above 5000 nM in assay [2] (setting [9]); 200 to 5000 nM in assay [3] (setting [10]); above 5000 nM in assay [4] (setting [11]).
On to `CC(O)c1cnc(NC2CCCNC2)nc1-c1c[nH]c2ccccc12` (single isomer, unassigned) [Compound 239], for which the IC50 was above 5000 nM in assay [5]; 200 to 5000 nM in assay [1] (setting [8]); above 5000 nM in assay [2] (setting [9]); 200 to 5000 nM in assay [3] (setting [12]); above 5000 nM in assay [4] (setting [11]).
`CNC(=O)C1CNCC(Nc2ncc(C(F)(F)F)c(-c3c[nH]c4ccccc34)n2)C1` (single isomer, unassigned) [Compound 252]: the IC50 is above 5000 nM in assay [5]; 20 to 200 nM in assay [1] (setting [8]); above 5000 nM in assay [2] (setting [9]); 200 to 5000 nM in assay [3] (setting [12]); 200 to 5000 nM in assay [4] (setting [11]).
In the case of `CNC(=O)C1CNCC(Nc2ncc(C(F)(F)F)c(-c3c[nH]c4ccccc34)n2)C1` (single isomer, unassigned) [Compound 253], the IC50 in assay [5] was 20 to 200 nM; in assay [1] (setting [8]), below 20 nM; in assay [2] (setting [9]) it was 200 to 5000 nM; in assay [3] (setting [12]), 20 to 200 nM; in assay [4] (setting [11]) it was 20 to 200 nM.
Turning to `CCC(=O)N[C@@H]1CNC[C@H](Nc2ncc(C(F)(F)F)c(-c3c[nH]c4c(S(C)(=O)=O)cccc34)n2)C1` (single isomer, unassigned) [Compound 259], the IC50 in assay [5] is 200 to 5000 nM; in assay [1] (setting [8]), below 20 nM; in assay [2] (setting [9]), 200 to 5000 nM; in assay [3] (setting [10]), 20 to 200 nM; in assay [4] (setting [11]), 200 to 5000 nM.
With `Brc1cnc(NC2CCCNC2)nc1-c1c[nH]c2ccccc12` (stereo in doubt) [Compound 133], the IC50 in assay [5] is 20 to 200 nM; in assay [1] (setting [8]) it was below 20 nM; in assay [2] (setting [9]), 200 to 5000 nM; in assay [3] (setting [10]), below 20 nM; in assay [4] (setting [11]) it was 20 to 200 nM.
Turning to `Fc1cc2[nH]cc(-c3nc(N[C@H]4CCCNC4)ncc3Cl)c2cc1F` [Compound 111], the IC50 is 20 to 200 nM in assay [5]; below 20 nM in assay [1] (setting [8]); 20 to 200 nM in assay [2] (setting [9]); 20 to 200 nM in assay [3] (setting [10]); 200 to 5000 nM in assay [4] (setting [11]).
As to `Clc1cnc(N[C@@H]2CN3CCC2CC3)nc1-c1c[nH]c2ccccc12` [Compound 131, (S)—N-(5-chloro-4-(1H-indol-3-yl)pyrimidin-2-yl)quinuclidin-3-amine], the IC50 was above 5000 nM in assay [5]; above 5000 nM in assay [1] (setting [8]); above 5000 nM in assay [2] (setting [9]); 200 to 5000 nM in assay [3] (setting [10]); above 5000 nM in assay [4] (setting [11]).
For the compound `Clc1cnc(N[C@H]2CN3CCC2CC3)nc1-c1c[nH]c2ccccc12` [Compound 134], the IC50 in assay [5] is above 5000 nM; in assay [1] (setting [8]), above 5000 nM; in assay [2] (setting [9]) it was above 5000 nM; in assay [3] (setting [12]) it was 200 to 5000 nM; in assay [4] (setting [11]), above 5000 nM.
Turning to `FC(F)(F)c1cnc(N[C@H]2CCCNC2)nc1-c1c[nH]c2c(-c3ccncc3)cccc12` [Compound 162], the IC50 in assay [5] was 200 to 5000 nM; in assay [1] (setting [8]), 20 to 200 nM; in assay [2] (setting [9]), 200 to 5000 nM; in assay [3] (setting [10]), below 20 nM.
For `FC(F)(F)c1cnc(N[C@H]2CCCNC2)nc1-c1c[nH]c2c(Br)cccc12` [Compound 163], the IC50 in assay [5] was 200 to 5000 nM; in assay [1] (setting [8]) it was 20 to 200 nM; in assay [2] (setting [9]) it was 200 to 5000 nM; in assay [3] (setting [10]), 20 to 200 nM.
On to `Cn1cc(-c2cccc3c(-c4nc(N[C@H]5CCCNC5)ncc4C(F)(F)F)c[nH]c23)cn1` [Compound 164], for which the IC50 in assay [5] is 200 to 5000 nM; in assay [1] (setting [8]), 20 to 200 nM; in assay [2] (setting [9]), 200 to 5000 nM; in assay [3] (setting [10]), below 20 nM.
For the compound `FC(F)(F)c1cnc(N[C@H]2CCCNC2)nc1-c1c[nH]c2cc(N3CCCC3)ccc12` [Compound 213, N-[(3S)-3-piperidyl]-4-(6-pyrrolidin-1-yl-1H-indol-3-yl)-5-(trifluoromethyl) pyrimidin-2-amine], the figures for the IC50 in assay [2] (setting [9]), in assay [3] (setting [10]) and in assay [4] (setting [11]) were above 5000 nM, 20 to 200 nM and above 5000 nM, respectively.
For `FC(F)(F)c1cnc(N[C@H]2CCCNC2)nc1-c1n[nH]c2ccccc12` [drawing 562], the IC50 is below 20 nM in assay [1] (setting [6]), 200 to 5000 nM in assay [2] (setting [6]), below 20 nM in assay [3] (setting [7]) and 200 to 5000 nM in assay [4] (setting [6]).
Take `C[C@]1(N)CC[C@@H](Nc2ncc(C(F)(F)F)c(-c3c[nH]c4ccccc34)n2)CC1` [reference compound]: the IC50 in assay [1] (setting [6]) was 200 to 5000 nM; in assay [2] (setting [6]), above 5000 nM; in assay [3] (setting [7]), 20 to 200 nM; in assay [4] (setting [6]), 200 to 5000 nM.
Take `C[C@]1(N)CC[C@@H](Nc2ncc(C(F)(F)F)c(-c3n[nH]c4ccccc34)n2)CC1` [reference compound]: the IC50 in assay [1] (setting [6]) is 200 to 5000 nM; in assay [2] (setting [6]) it was 200 to 5000 nM; in assay [3] (setting [7]), 20 to 200 nM; in assay [4] (setting [6]), 200 to 5000 nM.
